Assay results as given in publication PMC8235661, “Photoelectric Dye, NK-5962, as a Potential Drug for Preventing Retinal Neurons from Apoptosis: Pharmacokinetic Studies Based on Review of the Evidence” (Life, 2021).
Where two headings read alike, the source gives them in different places.

What was measured:
[1] = Unbound fraction by equilibrium dialysis, rat plasma; assay type: in vitro ADME; details: 1 μM, equilibrium dialysis 37 °C 4 h
Experimental: (§1) An equilibrium dialysis apparatus, Rapid Equilibrium Dialysis (RED) Device Single-Use Plate with Inserts, 8K MWCO (ThermoFisher Scientific, Waltham, MA, USA), was used to determine the unbound fraction for each compound in human plasma, rat plasma, and medium containing 10% fetal bovine serum (FBS). Plasma or medium was mixed with the test compound (1 μM) and 200 μL aliquots were loaded into the apparatus and dialyzed versus 350 μL of 100 mM phosphate buffer (pH 7.4) at 37 °C for 4 h by rotation at 1000 rpm. The unbound fraction was calculated as the ratio of receiver side (buffer) to donor side (plasma) concentrations.

Cytotoxicity test = assay type: cell-based
[2] = Repeated-dose systemic toxicity test; details: in vivo
[3] = In vivo pharmacokinetics, intravenous administration; set-up: species or system rat
Experimental: Male Sprague Dawley (SD) and Wistar rats (5-week old) were obtained from Charles River Laboratories Japan (Yokohama, Japan) and Japan SLC, Inc. (Hamamatsu, Japan), respectively. All animals were maintained in air-conditioned quarters with room temperatures of 20 ± 2 °C, relative humidity of 50 ± 10%, and an alternating 12 h light/dark cycle. The rats were fed a certified diet MF (Oriental Yeast Co., Tokyo, Japan) and water ad libitum. The studies were conducted in accordance with the guidelines provided by the Animal Care and Use Committee of Osaka University (Identifier DouyakuR01-3-1).
A test compound (NK-5962) solution in 50% DMSO/water was injected intravenously (i.v.) to male SD rats. A test compound suspension in 0.5% methyl cellulose was administered orally (p.o.) to male Wistar rats. The dosage of the test compound was 1 mg/2 mL/kg (i.v.) and 10 or 100 mg/10 mL/kg (p.o.). Blood samples were collected from the jugular vein at 5 and 15 min and 1 h (i.v.) by using pre-heparinized syringe after the intravenous administration or from the caudal vein at 15 and 30 min, 1, 2 and 4 h (p.o.) by using heparinized capillary tube after the oral administration. At 30 min and 2 h (i.v.) or 8 h (p.o.), blood samples were collected from the abdominal aorta under isoflurane anesthesia and the eye balls and the whole brain were excised immediately.
Plasma was prepared by centrifugation of the blood samples. Plasma and tissues were stored at −80 °C. The tissues were homogenized with a four-fold volume of phosphate-buffered saline to obtain a 20% tissue homogenate. Plasma and 20% tissue homogenates were precipitated with 4–20 volumes of acetonitrile/IS and centrifuged at 15,000× g at 4 °C for 10 min. The supernatants were analyzed by liquid chromatography and tandem mass spectrometry (LC-MS/MS). Standard non-compartmental analysis was performed to determine the pharmacokinetic parameters: elimination half-life (t1/2) and area under the concentration time curve from time zero to infinity (AUC∞). The absolute bioavailability (BA) of the oral dose was calculated as AUC∞ (p.o.)/AUC∞ (i.v.).
Liquid chromatography and tandem mass spectrometry instrument (LC-MS8060) equipped with Shimadzu Nexera series LC system (Shimadzu, Kyoto, Japan) were used. All compounds were analyzed in multi-reaction monitoring mode under electron spray ionization conditions. The analytical column used was a […] C18 MGIII (3 μm × 2.0 mmID × 35 mm; OSAKA SODA, Osaka, Japan) at 50 °C. The gradient mobile phase consisted of 0.1% formic acid in water (mobile phase A) and 0.1% formic acid in acetonitrile (mobile phase B) at a total flow rate of 1 mL/minute. The initial mobile phase composition was 10% B, which was held constant for 0.2 min, increased in a linear fashion to 90% B over 1 min, then held constant for 0.8 min, and then finally brought back to the initial condition of 10% B over 0.01 min and re-equilibrated for 1 min. The transitions (precursor ion > product ion) of NK-5962 and IS (methyl testosterone) are 433.2 > 279.2 and 303.1 > 109.1 (positive), respectively.

[4] = tested on: human chromosomal aberration; test: Human chromosomal aberration test; assay type: cell-based
[5] = Eye ball concentration after topical application as eye drops; assay type: in vivo; details: Wistar, rat
Experimental: The NK-5962 solutions at 16 μM concentration in phosphate-buffered saline and at 39.7 μM concentration in 0.5% methyl cellulose 400 solution (FUJIFILM Wako Chemicals, Osaka, Japan) were prepared as eye drops and topically applied to both eyes of two Wistar rats assigned for each concentration. The eyes were enucleated 30 min after topical application, washed twice in saline, weighed, and frozen for NK-5962 measurement. In parallel, 3 μL of the NK-5962 solution at 16 μM concentration in phosphate-buffered saline was injected into the vitreous of both eyes of 2 Wistar rats. The eyes in each rat were enucleated 5 min and 2 h after the intravitreous injection, washed twice in saline, weighed, and then frozen. Both eyes of one rat served as the negative control. This study was approved by the Animal Care and Use Committee at Okayama University (Identifier OKU-2016267, OKU-2019196).
Liquid chromatography and tandem mass spectrometry instrument (LC-MS8060) equipped with Shimadzu Nexera series LC system (Shimadzu, Kyoto, Japan) were used. All compounds were analyzed in multi-reaction monitoring mode under electron spray ionization conditions. The analytical column used was a […] C18 MGIII (3 μm × 2.0 mmID × 35 mm; OSAKA SODA, Osaka, Japan) at 50 °C. […]

[6] = tested on: apoptotic cells in the retinal outer nuclear layer of RCS rats; set-up: method as in PMID 28085534; details: cited from earlier work
[7] = tested on: chick retinal pigment epithelial cells; set-up: method as in PMID 18414992; details: 6.6 × 10^−5, 6.6 × 10^−6 and 6.6 × 10^−7 M, 4 h, dark or light 320 lux; cited from earlier work
[8] = Unbound fraction by equilibrium dialysis, medium containing 10% fetal bovine serum; assay type: in vitro ADME; details: 1 μM, equilibrium dialysis 37 °C 4 h
Experimental: as §1

bacterial = test: Bacterial reverse mutation test
[9] = Unbound fraction by equilibrium dialysis, human plasma; assay type: in vitro ADME; details: 1 μM, equilibrium dialysis 37 °C 4 h
Experimental: as §1

[10] = intravenous 1 mg/kg, 0.5 h, single rat, 1 mg/kg
[11] = intravenous 1 mg/kg, 2 h, single rat, 1 mg/kg

CCCCN(CCCC)c1ccc(C=Cc2sc3ccccc3[n+]2CC(=O)O)cc1.[Br-] [NK-5962, 2-[2-[4-(dibutylamino)phenyl]ethenyl]-3-carboxymethylbenzothiazolium bromide]
Protein-Binding (Non-Binding Ratio) Rat Plasma [1]: 0.022 | toxicity in the cytotoxicity test (Cytotoxicity test): not toxic | repeated-dose systemic toxicity test [2]: not toxic | Plasma Concentration ([3]; intravenous 1 mg/kg, 0.083 h, single rat, 1 mg/kg): 648 nM | Plasma Concentration ([3]; intravenous 1 mg/kg, 0.25 h, single rat, 1 mg/kg): 342 nM | Eye Ball/ Plasma Ratio [3, 10]: 0.045 | Plasma Concentration [3, 10]: 569 nM | concentration at 2 h ([3]; intravenous 1 mg/kg, 0.5 h, single rat, 1 mg/kg, read-out: Eye Ball Concentration): 25.5 nM | Plasma Concentration ([3]; intravenous 1 mg/kg, 1 h, single rat, 1 mg/kg): 34.6 nM | Eye Ball/ Plasma Ratio [3, 11]: 0.16 | Plasma Concentration [3, 11]: 22.0 nM | concentration at 2 h ([3]; intravenous 1 mg/kg, 2 h, single rat, 1 mg/kg, read-out: Eye Ball Concentration): 3.42 nM | Kp at 0.5 h ([3]; male, Sprague Dawley, rat, eye ball / plasma, iv, 1 mg/kg, intravenous 1 mg/kg, 0.5 h, single rat, read-out: Eye Ball/ Plasma Ratio): 0.052 | Kp at 2 h ([3]; male, Sprague Dawley, rat, eye ball / plasma, iv, 1 mg/kg, intravenous 1 mg/kg, 2 h, single rat, read-out: Eye Ball/ Plasma Ratio): 0.17 | concentration at 0.5 h ([3]; male, Sprague Dawley, rat, eye ball, iv, 1 mg/kg, intravenous 1 mg/kg, 0.5 h (30 min), read-out: Mean Eye Ball Concentration): 29.8 nM | concentration at 0.5 h ([3]; male, Sprague Dawley, rat, eye ball, iv, 1 mg/kg, intravenous 1 mg/kg, 0.5 h, single rat, read-out: Eye Ball Concentration): 34.1 nM | concentration at 2 h ([3]; male, Sprague Dawley, rat, eye ball, iv, 1 mg/kg, intravenous 1 mg/kg, 2 h, single rat, read-out: Eye Ball Concentration): 4.16 nM | concentration at 2 h ([3]; male, Sprague Dawley, rat, eye ball, iv, 1 mg/kg, intravenous 1 mg/kg, 2 h, read-out: Mean Eye Ball Concentration): 3.79 nM | concentration at 0.083 h ([3]; male, Sprague Dawley, rat, plasma, iv, 1 mg/kg, intravenous 1 mg/kg, 0.083 h, single rat): 779 nM | concentration at 0.25 h ([3]; male, Sprague Dawley, rat, plasma, iv, 1 mg/kg, intravenous 1 mg/kg, 0.25 h, single rat): 511 nM | concentration at 0.5 h ([3]; male, Sprague Dawley, rat, plasma, iv, 1 mg/kg, intravenous 1 mg/kg, 0.5 h, single rat, read-out: Plasma Concentration): 661 nM | concentration at 1 h ([3]; male, Sprague Dawley, rat, plasma, iv, 1 mg/kg, intravenous 1 mg/kg, 1 h, single rat): 49.9 nM | concentration at 2 h ([3]; male, Sprague Dawley, rat, plasma, iv, 1 mg/kg, intravenous 1 mg/kg, 2 h, single rat, read-out: Plasma Concentration): 24.3 nM | half-life ([3]; male, Sprague Dawley, rat, plasma, intravenous 1 mg/kg body weight, rats): 21 min | genetic toxicity, human chromosomal aberration test [4]: not toxic | concentration at 0.5 h ([5]; topical eye drop 16 µM (10 µL)): 0.14 nM | concentration at 0.5 h ([5]; topical eye drop 39.7 µM (10 µL)): 0.96 nM | number of TUNEL-positive cells in the outer nuclear layer of the four retinal sites (a + b + c + d) ([6]; 1.6 μM NK-5962 intravitreous, saline 139): 85 | number of TUNEL-positive cells in the outer nuclear layer of the four retinal sites (a + b + c + d) ([6]; 16 μM NK-5962 intravitreous, saline 129): 72 | number of TUNEL-positive cells in the outer nuclear layer compared to saline-injected eyes ([6]; intravitreous 16 μM, constant dark condition, P = 0.0001): significantly less | TUNEL-positive cells in the outer nuclear layer compared to the saline-injected eyes ([6]; intravitreous 3 μL twice, 16 to 16 × 10^−2 μM, 12 h light/dark cycle): significantly less | percent cytotoxicity value [7]: negative in all groups | Protein-Binding (Non-Binding Ratio) 10% Fetal Bovine Serum [8]: 0.34 | genetic toxicity, bacterial reverse mutation test (bacterial): not toxic | Protein-Binding (Non-Binding Ratio) Human Plasma [9]: 0.028
